Test results reported in patent publication US20240398845A1, “USE OF SGLT-2 INHIBITORS FOR THE PREVENTION AND/OR TREATMENT OF CARDIAC DISEASES IN NON-HUMAN MAMMALS EXCLUDING FELINES, IN PARTICULAR CANINES” (BOEHRINGER INGELHEIM VETMEDICA GMBH, priority 2021, published 2024).

Assays:
[1] = test system: laboratory animals diagnosed with mitral-valve disease (ACVIM stage B2 and C); assay: Exploratory laboratory trial "MVD" - outline; type: in vivo, dog; conditions: dogs with mitral-valve disease stage B2 and C; velagliflozin 0.3 mg/kg bodyweight orally once daily; example headed Outline
Procedure: (§1) Laboratory animals (older than 1 year) diagnosed with mitral-valve disease via physical and echocardiography (according to ACVIM guidelines—stage B2 and C) are treated orally and once daily with a velagliflozin dosage of 0.3 mg/kg bodyweight. During the study period the body weight, body condition score, blood pressure and the cardiovascular system are examined on a regular basis during the visits at the site by the investigator. Additionally, thoracic radiographs (in the right lateral and dorso ventral view), echocardiography (IVSd, LA diameter, Ao diameter, LVIDd, LVWd, LVWs, IVSd, LVPWd, EDV, ESV, EF, % FS, presence of effusion) and electrocardiography are performed. In order to obtain an overview as complete as possible regular blood tests include a complete hematology (white blood cells (WBC), WBC differential, red blood cells, hemoglobin, hematocrit, Heinz bodies, platelet count), a biochemistry panel (total protein, Albumin, Globulin, Alkaline phosphatase (ALP), Alanine transaminase (ALT), Aspartate transaminase (AST), Total bilirubin, Creatinine, Blood urea nitrogen or urea (BUN), Calcium, Sodium, Potassium, Chloride, Phosphorus, Glucose, Cholesterol, Triglycerides, Fructosamine), the measurement of total T4, ketone bodies and cardiac biomarkers (Plasma NT-pro BNP, Cardiac troponin I). […]

[2] = test system: client-owned dog patients diagnosed with DCM (modified NYHA class 2 and 3); assay: Exploratory clinical field study "DCM" - outline; type: in vivo; conditions: dogs with DCM; velagliflozin 0.3 mg/kg bodyweight orally once daily; example headed Outline
Procedure: as §1, with “Client-owned dog patients (older” for “Laboratory animals (older”, “with DCM” for “with mitral-valve disease”, “echocardiography (modified NYHA class 2” for “echocardiography (according to ACVIM guidelines—stage B2”, “and 3)” for “and C)”

[3] = test system: Beagle dogs with asymptomatic/preclinical ACVIM stage B2 MMVD; assay: Exploratory laboratory study in dogs with asymptomatic/preclinical myxomatous mitral valve disease (MMVD); type: in vivo, dog
Source text: Echocardiographic findings in dogs with MMVD stage B2 include degenerative valvular changes, increased left atrial dimension (LA/AO-ratio≥1.6), and increased left ventricular end-diastolic dimensions normalized to body weight (LVIDDN≥1.7) (Keene et al., 2019). For evaluation of survival time a severity score (MINE score) based on the echocardiographic variables above, the cardiac contractility (fractional shortening, FS %), and transmitral peak E-wave velocity was initiated (Vezzosi T et al., J Vet Intern Med. 2021, 35(3):1238-1244). The MINE score is associate with the survival time and provides therefore prognostic information.
The objective of this study was to evaluate velagliflozin, a sodium-glucose co-transporter-2 inhibitor, as a treatment for dogs with asymptomatic/preclinical ACVIM stage B2 MMVD. Three Beagle dogs previously diagnosed with this condition by a veterinary cardiologist were included in the study.
Baseline assessments included body weight measurements, veterinary examinations, echocardiographs, urinalysis, blood collections for hematology, biochemistry, BHB, NT-proBNP, cTnI, and erythropoietin analysis as well as radiographs to assess heart size, pulmonary edema, and congestion. On study Day 0, once daily oral administration of velagliflozin (0.05 mg/kg bodyweight) was initiated. Veterinary examinations, urinalysis, and blood collections for analysis of the above-mentioned parameters were repeated on Days 32, 59, and 91. Echocardiographs were repeated on Days 23, 58, and 93. General health observations are conducted twice daily, and body weights measured approximately every 3 weeks.
Additionally, the “The Mitral Insufficiency Echocardiographic” score, a severity classification of myxomatous mitral valve disease (MMVD) in dogs (MINE score) was calculated (Vezzosi et al., 2021). This score as an easy-to-use echocardiographic classification of severity of MMVD based on routinely acquired echocardiographic variables. The hypothesis was that the MINE score is clinically effective since it is associated with median survival time of the animals (see tables 5 and 6 below).

[4] = Azul, Day 58, velagliflozin 0.05 mg/kg bodyweight oral once daily

For `N#Cc1ccc([C@@H]2O[C@H](CO)[C@@H](O)[C@H](O)[C@H]2O)cc1Cc1ccc(C2CC2)cc1` [velagliflozin, Velagliflozin], the “clinical parameters (e.g. appetite, activity level and breathing)” value [1] was “improve significantly”, the “survival time and time to event (death or hospitalization for heart failure, pulmonary oedema)” value [1] was “clinically relevant prolongation” and the “clinical parameters (e.g. appetite, activity level and breathing)” value [2] was “improve significantly”. For the same compound, the “survival time and time to event (overall death, cardiovascular death or hospitalization for heart failure)” value [2] was “clinically relevant prolongation”, the MINE severity classification ([3]; Azul, D93, moderate at baseline) was “severe” and the “LVIDDN reduction from baseline” value [3, 4] was 3.56%. The “decrease from baseline in LA/Ao ratio” value [3, 4] was 17.3%, the “NT-proBNP reduction from baseline” value ([3]; Azul, Day 59, within the reference range) was 76.3% and the “NT-proBNP reduction from baseline” value ([3]; Azul, Day 91) was 45.8%. The “Total MINE score” value ([3]; Azul, Day 93, base line 7 (Moderate), increase due to increase in FS %, might be due to cystitis) was 8 (Increase due to increase in FS %, also showed an, the “LVIDDN change versus baseline” value ([3]; Azul, Day 93, just above baseline) was “+0.81%” and the “LA/Ao ratio below baseline” value ([3]; Azul, Day 93, velagliflozin 0.05 mg/kg bodyweight oral once daily) was 1.08%. For the same compound, the “adverse event in one animal” value ([3]; Azul, during treatment, recovered) was “developed a cystitis”, the “LVIDDN (in words)” value ([3]; Azul, summary) was “no change” and the “LA/AO-ratio (in words)” value ([3]; Azul, summary at D93) was “no change”. The “LVIDDN (in words)” value ([3]; Birdie and Shelby, summary, within day-to-day variability) was “slight decrease (improvement)”, the “LVIDDN reduction from baseline” value ([3]; Birdie, Day 93) was 5.25% and the MINE severity classification ([3]; Birdie, Day 93, Mild at base line) was “Mild (4-5)”. The “Total MINE score” value ([3]; Birdie, Day 93, base line 5 (Mild)) was 5, the “reduction from baseline in LA/Ao ratio” value ([3]; Birdie, Day 93, velagliflozin 0.05 mg/kg bodyweight oral once daily) was 12.73% and the “left atrial size (in words)” value ([3]; Birdie, summary, beyond day-to-day variability) was “normalization of the left atrial size”. For the same compound, the “NT-proBNP reduction from baseline” value ([3]; Shelby, Day 91, still above the reference range) was 45.6%, the “LVIDDN reduction from baseline” value ([3]; Shelby, Day 93) was 3.54% and the MINE severity classification ([3]; Shelby, Day 93, Moderate at base line) was “Moderate (6-7)”. The “Total MINE score” value ([3]; Shelby, Day 93, base line 7 (Moderate), decrease due to improvement in left ventricular diameter) was 6, the “LA/AO-ratio (in words)” value ([3]; Shelby, summary, within day-to-day variability) was “slight increase (worsening)” and the “reduction in LA/Ao ratio from baseline” value ([3]; Shelby, velagliflozin 0.05 mg/kg bodyweight oral once daily) was “had not shown a reduction”. The “survival at the time of the interim analysis” value ([3]; all three dogs, D94) was “still alive”, the “blood glucose, renal function, or serum electrolytes” value ([3]; any time in any animal) was “no changes” and the observations following dosing ([3]; attributed to oral administration of a liquid product) was “Lip smacking/licking, head shaking, grimacing, and salivating”. For the same compound, the “most frequent abnormal observation following initiation of treatment” value ([3]; group housed dogs, relationship to test product unknown, one instance also at baseline) was “vomit found within the housing pen”, the “changes in cTnI” value ([3]; three Beagle dogs, velagliflozin 0.05 mg/kg bodyweight oral once daily) was “do not appear to be showing a clinically significant trend” and the “hematology, biochemistry, or erythropoietin parameters” value ([3]; three Beagle dogs, velagliflozin 0.05 mg/kg bodyweight oral once daily, Days 32, 59, 91) was “No clinically significant changes”. The glucosuria ([3]; three dogs, pharmacodynamic effectiveness) was “noted in all three dogs”, the “development of congestive heart failure (CHF)” value ([3]; three dogs, until D94, velagliflozin 0.05 mg/kg bodyweight once daily only) was “None of the study dogs developed congestive heart failure” and the overall disease state ([3]; three dogs, until interim analysis at D94) was “stable disease states with signs of improvement”.
